Experimental data published in patent US5885968A, “Triantennary cluster glycosides, their preparation and use” (Rijksuniversiteit te Leiden, priority 1992, dated 1999).
Read-outs that look alike come from different tables or passages of the source.

Legend:
[1] = target: T1, Fuc/Gal receptor on the hepatic Kupffer cell (Rattus norvegicus, UniProt P10716); assay: Inhibition of 125I-Lac-LDL binding to Kupffer cells; details: 4° C., 2 h
T1 construct: Kupffer cells in DMEM medium, supplemented with 2% BSA and 2 mM CaCl2; endogenous in cells; host or cells: primary Kupffer cells of liver
T1 sequence (P10716 1-550): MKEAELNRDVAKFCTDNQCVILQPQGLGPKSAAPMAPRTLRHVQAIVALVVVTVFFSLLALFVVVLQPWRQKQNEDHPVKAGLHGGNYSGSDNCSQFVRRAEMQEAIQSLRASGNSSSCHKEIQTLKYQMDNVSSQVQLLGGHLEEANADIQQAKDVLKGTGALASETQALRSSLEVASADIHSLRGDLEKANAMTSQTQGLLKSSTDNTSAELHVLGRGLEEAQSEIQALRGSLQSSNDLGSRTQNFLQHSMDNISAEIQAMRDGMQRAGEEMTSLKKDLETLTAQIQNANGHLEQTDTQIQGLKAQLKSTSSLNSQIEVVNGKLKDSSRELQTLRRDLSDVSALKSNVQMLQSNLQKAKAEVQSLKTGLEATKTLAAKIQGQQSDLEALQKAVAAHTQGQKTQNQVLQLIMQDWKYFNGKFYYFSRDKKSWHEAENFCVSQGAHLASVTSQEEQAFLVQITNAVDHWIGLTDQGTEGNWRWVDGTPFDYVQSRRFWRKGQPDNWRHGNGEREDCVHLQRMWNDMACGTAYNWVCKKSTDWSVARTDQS
Description: An idea of the specificity of cluster glycosides for the asialoglycoprotein receptor on the hepatic parenchymal cell can be obtained by comparing the affinity for this receptor with the affinity for the likewise galactose recognizing Fuc/Gal receptor on the hepatic Kupffer cell. […] To that end, Kupffer cells in DMEM medium, supplemented with 2% BSA and 2 mM CaCl2, are incubated at 4° C. for 2 h with 3 μg/ml ^125 I-Lac-LDL in the absence or presence of the compound, in a concentration range of 1 nM to 300 μM. After the incubation the binding of ^125 I-Lac-LDL to the Kupffer cells is determined in a manner identical to that for ^125 I-ASOR binding to liver parenchymal cells.

[2] = target: T2, asialoglycoprotein receptor (Rattus norvegicus, UniProt P02706+P08290); assay: Inhibition of binding of radiolabeled asialoorosomucoid to rat liver parenchymal cells; details: for Ki: rat liver parenchymal cells, labeled asialoorosomucoid
T2 construct: parenchymal cells isolated from rat liver; endogenous in cells; host or cells: primary parenchymal cells (hepatocytes) isolated from rat liver
T2 sequence (P02706 1-284): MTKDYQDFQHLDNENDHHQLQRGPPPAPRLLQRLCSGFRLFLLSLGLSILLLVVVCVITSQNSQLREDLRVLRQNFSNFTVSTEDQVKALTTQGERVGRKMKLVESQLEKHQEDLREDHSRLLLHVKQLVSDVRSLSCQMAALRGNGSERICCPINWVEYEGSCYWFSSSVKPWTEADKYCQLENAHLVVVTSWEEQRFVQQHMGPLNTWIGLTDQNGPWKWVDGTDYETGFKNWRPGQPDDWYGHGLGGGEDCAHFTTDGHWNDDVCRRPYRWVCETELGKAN
T2 sequence (P08290 1-301): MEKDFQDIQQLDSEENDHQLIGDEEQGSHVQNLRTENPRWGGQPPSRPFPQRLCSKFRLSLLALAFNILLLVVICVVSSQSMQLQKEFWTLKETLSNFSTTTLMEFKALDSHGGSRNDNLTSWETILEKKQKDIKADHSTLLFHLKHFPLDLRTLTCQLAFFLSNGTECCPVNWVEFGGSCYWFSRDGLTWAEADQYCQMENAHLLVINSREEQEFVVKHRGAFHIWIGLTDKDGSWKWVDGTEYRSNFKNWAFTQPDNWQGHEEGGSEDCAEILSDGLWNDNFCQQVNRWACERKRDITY
Description: The affinity of cluster glycosides can be verified by means of binding studies. In them, it is considered to what extent the compounds are capable of inhibiting the binding of the radioisotopically labeled asioloorosomucoid to parenchymal cells isolated from rat liver according to a previously described procedure (ref 17). The sugar concentration at which inhibition arises is a measure of the affinity.

rats = assay: Serum cholesterol lowering after intravenous injection in rats; type: in vivo, rat; details: injection into vena penis, 0.056-0.56 mg, FIG. 3
Description: This was verified as follows. Male rats (250-300 g) were anesthetized by means of ether, whereafter 500 gl PBS, having dissolved therein 0.56 mg, 0.18 mg, 0.056 mg or 0 mg TG(20 Å)-chol (formula 20) or 0.56 mg tris-glu-chol (formula 21): [drawing 19] was injected into the vena penis. At the times indicated in FIG. 3, blood samples of 300 μl were taken by means of orbital puncture. The blood samples were centrifuged (5 min; 1500 g) and the serum was used for a cholesterol assay by means of the CHOD-PAP kit of Boehringer Mannheim. 24 Hours after injection the rat was bled. The blood was centrifuged whereafter the serum was pipeted. Then the serum was subjected to gradient density ultracentrifugation and the various lipoprotein fractions were isolated: HDL (1.21<d<1.05), LDL (1.050<d<1.019), IDL (1.019<d<1.006) and VLDL (d<1.006). Finally, the total cholesterol concentrations of these lipoprotein fractions were assayed by means of the CHOD-PAP kit.

[3] = read-out: Fuc-Gal receptor pKi (converted)
[4] = read-out: Asialoglycoprotein receptor Ki
[5] = read-out: Asialoglycoprotein receptor pKi (± S.E.) (converted)

Structure (SMILES)	Ki ([1]; read-out: Fuc-Gal receptor Ki) [µM]	Ki [1, 3] [µM]	Ki [2, 4] [µM]	Ki [2, 5] [µM]	Relative affinity for the ASGPr (in words) ([2]; from Table 2)	Total serum cholesterol level (rats)
COC(=O)CCCCC(=O)NCC(=O)NC(CO[C@@H]1O[C@H](CO)[C@H](O)[C@H](O)[C@H]1O)(CO[C@@H]1O[C@H](CO)[C@H](O)[C@H](O)[C@H]1O)CO[C@@H]1O[C@H](CO)[C@H](O)[C@H](O)[C@H]1O [Compound 15a]	> 30	> 31.6	390	389	–	–
COC(=O)CCCCC(=O)NCC(=O)NC(COCOCCOCCO[C@@H]1O[C@H](CO)[C@H](O)[C@H](O)[C@H]1O)(COCOCCOCCO[C@@H]1O[C@H](CO)[C@H](O)[C@H](O)[C@H]1O)COCOCCOCCO[C@@H]1O[C@H](CO)[C@H](O)[C@H](O)[C@H]1O [Compound 15d]	> 100	> 100	11	11.2	–	–
COC(=O)CCCCC(=O)NCC(=O)NC(COCOCCOCCOCCOCCO[C@@H]1O[C@H](CO)[C@H](O)[C@H](O)[C@H]1O)(COCOCCOCCOCCOCCO[C@@H]1O[C@H](CO)[C@H](O)[C@H](O)[C@H]1O)COCOCCOCCOCCOCCO[C@@H]1O[C@H](CO)[C@H](O)[C@H](O)[C@H]1O [Compound 15e]	> 100	> 100	0.2	0.209	–	–
CC(C)CCC[C@@H](C)[C@H]1CC[C@H]2[C@@H]3CC=C4C[C@@H](OC(=O)CCC(=O)NCC(=O)NC(CO[C@@H]5O[C@H](CO)[C@@H](O)[C@H](O)[C@H]5O)(CO[C@@H]5O[C@H](CO)[C@@H](O)[C@H](O)[C@H]5O)CO[C@@H]5O[C@H](CO)[C@@H](O)[C@H](O)[C@H]5O)CC[C@]4(C)[C@H]3CC[C@]12C [tris-glu-chol, reference compound]	–	–	–	–	–	does not lead to a change in the cholesterol level

More lines, main results first:

Ki ([1]; read-out: Fuc-Gal receptor Ki) [µM]	Ki [1, 3] [µM]	Ki [2, 4] [µM]	Ki [2, 5] [µM]	Relative affinity for the ASGPr (in words) ([2]; from Table 2)	Structure (SMILES)	Total serum cholesterol level (rats)
> 100	> 100	19	19.1	–	COC(=O)CCCCC(=O)NCC(=O)NC(COCOCCO[C@@H]1O[C@H](CO)[C@H](O)[C@H](O)[C@H]1O)(COCOCCO[C@@H]1O[C@H](CO)[C@H](O)[C@H](O)[C@H]1O)COCOCCO[C@@H]1O[C@H](CO)[C@H](O)[C@H](O)[C@H]1O [Compound 15b]	–
> 100	> 100	1.2	1.23	slightly higher affinity than TG(13 Å)	COC(=O)CCCCC(=O)NCC(=O)NC(COCOCCCO[C@@H]1O[C@H](CO)[C@H](O)[C@H](O)[C@H]1O)(COCOCCCO[C@@H]1O[C@H](CO)[C@H](O)[C@H](O)[C@H]1O)COCOCCCO[C@@H]1O[C@H](CO)[C@H](O)[C@H](O)[C@H]1O [Compound 15c]	–
